We go through twelve compounds from PubChem BioAssay (NCI).

Among the test systems are A549 NSCLC; ACHN renal; CAKI-1 renal; HT29 colon; MCF7 breast; MDA-MB-435; NCI/ADR-RES ovarian; SF-268 CNS; SN12C renal; SNB-19 CNS; SW-620 colon; MOLT-4 leukemia; RPMI-8226 leukemia; A498 renal.
Test in all cases: NCI anticancer screen, dose series, 48 h

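Five concentrations, 48 hours, 96-well plates. At the TGI there is no net growth.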

For `Cc1ccc(/C(=C/C=C(C#N)C#N)Sc2cc(Cl)ccc2Cl)cc1`, the TGI is greater than 100 µM in the experiment with A549 NSCLC; 10 µM in the experiment on ACHN renal; 19.9 µM in the experiment with CAKI-1 renal; greater than 100 µM in the experiment with HT29 colon; greater than 100 µM in the experiment with MCF7 breast; 7.46 µM in the experiment with MDA-MB-435. Besides, the TGI in the experiment on NCI/ADR-RES ovarian was 7.58 µM; with SF-268 CNS, 43.9 µM; with SN12C renal, 13.9 µM; in the experiment on SNB-19 CNS it was 22.3 µM; in the experiment on SW-620 colon, 22.5 µM.
For the compound `CN(C)CC(CO)(CN(C)C)CN(C)C`, the TGI with A549 NSCLC, in the experiment with ACHN renal, in the experiment with CAKI-1 renal, in the experiment on HT29 colon, with MCF7 breast and in the experiment with MOLT-4 leukemia was greater than 100 µM in each case. In addition, the TGI with NCI/ADR-RES ovarian, with RPMI-8226 leukemia, in the experiment with SF-268 CNS, with SN12C renal, with SNB-19 CNS and with SW-620 colon was greater than 100 µM each time.
Consider `Cc1ccc(CS(=O)(=O)C/N=c2\sc3ccccc3nc2/C=C(\O)c2ccc(Cl)cc2)cc1`, for which the TGI in the experiment with A549 NSCLC, in the experiment on ACHN renal, in the experiment with CAKI-1 renal, in the experiment with HT29 colon, in the experiment with MCF7 breast and with MDA-MB-435 was greater than 10 µM throughout. For the same compound, the TGI in the experiment with MOLT-4 leukemia, with NCI/ADR-RES ovarian, with RPMI-8226 leukemia, with SF-268 CNS, with SN12C renal and with SNB-19 CNS was greater than 10 µM throughout. In the experiment on SW-620 colon, this compound came in with a TGI greater than 10 µM.
Turning to `N#CC1CCN2N=C(c3ccccc3)SC12c1ccccc1` (configuration not stated), the TGI in the experiment with A549 NSCLC, with ACHN renal, in the experiment with CAKI-1 renal, with HT29 colon, in the experiment with MCF7 breast and in the experiment on MDA-MB-435 was greater than 100 µM in each case. For the same compound, the TGI with MOLT-4 leukemia was 83.4 µM; in the experiment on NCI/ADR-RES ovarian, greater than 100 µM; with RPMI-8226 leukemia, greater than 100 µM; in the experiment with SF-268 CNS it was greater than 100 µM; in the experiment on SN12C renal, greater than 100 µM; in the experiment on SNB-19 CNS it was greater than 100 µM. The TGI in the experiment on SW-620 colon was greater than 100 µM.
On to `CC(C)[Si](OC1=C(C(=O)N(C)c2ccccc2Cl)CCC1)(C(C)C)C(C)C`, for which the TGI came to 30.7 µM with A498 renal; 32.1 µM with A549 NSCLC; 36.3 µM in the experiment on ACHN renal; 36.5 µM in the experiment with CAKI-1 renal; 29 µM in the experiment with HT29 colon; 42.7 µM in the experiment on MDA-MB-435. Also, the TGI in the experiment on MOLT-4 leukemia was greater than 100 µM; in the experiment with NCI/ADR-RES ovarian, 30.4 µM; with RPMI-8226 leukemia it was 49.6 µM; with SF-268 CNS, 33.4 µM; with SN12C renal, 31.6 µM; in the experiment with SNB-19 CNS it was 30 µM. The TGI in the experiment with SW-620 colon was found to be 46.9 µM.
`COc1ccc2c(c1)nc1n2C(c2c(F)cccc2Cl)SC1` (configuration not stated): the TGI in the experiment on A498 renal is greater than 29.7 µM; in the experiment with A549 NSCLC, greater than 50.6 µM; in the experiment on ACHN renal, greater than 82.9 µM; in the experiment on CAKI-1 renal, greater than 100 µM; in the experiment on HT29 colon, greater than 100 µM; with MCF7 breast, greater than 34.8 µM. Further, the TGI with MOLT-4 leukemia is greater than 41.4 µM; in the experiment with NCI/ADR-RES ovarian it was 4.81 µM; in the experiment with RPMI-8226 leukemia, greater than 47.8 µM; in the experiment with SF-268 CNS, 90.6 µM; in the experiment on SN12C renal, greater than 100 µM; in the experiment with SNB-19 CNS, greater than 58.7 µM. The compound further had a TGI in the experiment with SW-620 colon greater than 60.2 µM.
Turning to `Cc1c(C(=O)O)c2cc3ccccc3cc2c(=O)n1C`, the TGI in the experiment with A549 NSCLC, in the experiment with ACHN renal, in the experiment with HT29 colon, with MCF7 breast, with MDA-MB-435 and in the experiment on NCI/ADR-RES ovarian was greater than 10 µM each time. The TGI with SF-268 CNS, in the experiment on SN12C renal, in the experiment on SNB-19 CNS and in the experiment on SW-620 colon was greater than 10 µM in each case.
In the case of `Cc1ccc(-n2c(Cn3nnc(-c4cccnc4)n3)nn(C3OC(COC(=O)c4ccccc4)C(OC(=O)c4ccccc4)C3OC(=O)c3ccccc3)c2=S)cc1` (configuration not stated), the TGI in the experiment on A549 NSCLC, in the experiment with ACHN renal, with CAKI-1 renal, in the experiment with HT29 colon, in the experiment with MCF7 breast and in the experiment with MDA-MB-435 was greater than 100 µM each time. In addition, the TGI with MOLT-4 leukemia, in the experiment with NCI/ADR-RES ovarian, in the experiment with RPMI-8226 leukemia, in the experiment with SF-268 CNS, in the experiment on SN12C renal and with SNB-19 CNS was greater than 100 µM each time. This compound showed a TGI in the experiment with SW-620 colon greater than 100 µM.
`O=c1c2ccccc2nc(-c2ccccc2)n1NC(=S)Nc1ccc(Cl)cc1[N+](=O)[O-]`: the TGI in the experiment on A498 renal, in the experiment with A549 NSCLC, with ACHN renal, with CAKI-1 renal, in the experiment on HT29 colon and in the experiment on MOLT-4 leukemia was greater than 100 µM throughout. In addition, the TGI in the experiment on RPMI-8226 leukemia, in the experiment on SF-268 CNS, in the experiment with SN12C renal and in the experiment with SW-620 colon was greater than 100 µM throughout.
On to `O=P1(Oc2ccc(Cl)cc2)OCCS1` (configuration not stated), for which the TGI in the experiment with A498 renal, in the experiment with A549 NSCLC, with ACHN renal, with HT29 colon, in the experiment with NCI/ADR-RES ovarian and in the experiment on RPMI-8226 leukemia was greater than 100 µM each time. Moreover, the TGI in the experiment with SF-268 CNS, in the experiment on SN12C renal, with SNB-19 CNS and with SW-620 colon was greater than 100 µM throughout.
Turning to `Cc1nc2ccccc2c(=O)n1NC(=O)c1ccccc1O`, the TGI in the experiment on A498 renal, in the experiment on A549 NSCLC, with ACHN renal, with HT29 colon, with MCF7 breast and in the experiment with MDA-MB-435 was greater than 100 µM throughout. The TGI in the experiment on MOLT-4 leukemia, with RPMI-8226 leukemia, in the experiment on SF-268 CNS, with SN12C renal, in the experiment with SNB-19 CNS and with SW-620 colon was greater than 100 µM each time.
For `C=C(C)[C@@]1(O)CCC[C@H]1NC(=O)OC(C)(C)C`, the TGI in the experiment on A498 renal, with A549 NSCLC, in the experiment on ACHN renal, with CAKI-1 renal, in the experiment with HT29 colon and in the experiment with MCF7 breast was greater than 100 µM each time. Also, the TGI in the experiment with MDA-MB-435, in the experiment on NCI/ADR-RES ovarian, in the experiment with SF-268 CNS, in the experiment on SN12C renal, with SNB-19 CNS and in the experiment on SW-620 colon was greater than 100 µM in each case.
